{
  "source": "patent US7829114B2",
  "about": "“Capsules containing aqueous fill compositions stabilized with derivatized cyclodextrin” (CyDex Pharmaceuticals, Inc., priority 2002, dated 2010)",
  "format_in_all_cases": "physicochemical",
  "key": {"[1]": {"experiment": "Shell stability on exposure to aqueous fill composition (half-shell integrity test, H.S.I.T.)", "protocol": "(§1) The same tests were performed on gelatin capsules obtained from CARDINAL HEALTH.\nIt has been discovered that PEG has a beneficial effect upon the shell-stabilizing property of an aqueous fill composition comprising SAE-CD. FIG. 6a depicts a ternary graph correlating the concentration of SAE-CD, water and PEG in a fill composition to the H.S.I.T. rating of a soft shell capsule exposed to the fill composition. Aqueous fill solutions comprising differing amounts of PEG, SAE-CD and water were prepared. The stability tests were conducted as described below. The HFC soft gelatin capsules described herein were used. For a composition comprising 40% wt. SBE-CD, 40% wt. water and 20% wt. PEG, the shell was stable for greater than 5 days. For a composition comprising 35% wt. SBE-CD, 35% wt. water and 30% wt. PEG, the shell was stable for greater than 5 days. For a composition comprising 18% wt. SBE-CD, 42% wt. water and 40% wt. PEG, the shell was stable for greater than 5 days. Under each of the conditions tested, the control sample excluded SAE-CD, i.e., containing only water and PEG at the indicated concentration, and failed within 24 hours. About the same results were obtained for the HFB (FIG. 6b), LFB (FIG. 7a) and LFC (FIG. 7b) soft gelatin capsules. Increasing the SAE-CD concentration to values higher than those indicated further increases the shelf-life of the shell or provides an HSIT rating of at least 4. Stabilized aqueous fill composition-containing capsule formulations can be achieved with each capsule if the following fill compositions are used."}, "[2]": {"experiment": "Hard shell capsule stability in aqueous SBE-CD solutions", "conditions": "for content in fill composition for an HSIT rating of at least 3: SAE-CD, PVP and water fill, CAPSUGEL HPMC hard shell capsule; for failure time: vcap, monitoring discontinued after fourteen days", "protocol": "Two types of hard shell capsules obtained from […] were evaluated. A conventional hard gelatin capsule (HCAP) and a hard HPMC (hydroxypropyl methylcellulose) capsule (VCAP) were evaluated under identical conditions using aqueous solutions differing in the concentration of SBE-CD (sulfobutyl ether cyclodextrin).\nIn the absence of SBE or another shell-stabilizing material, these shell materials were unstable to erosion, dissolution, swelling and degradation by water. Under the conditions of the assay, SBE cyclodextrin was able to stabilize the VCAP shells for ≧14 days even at concentrations of ≧30% wt. of the fill composition. In this assay, monitoring was discontinued after fourteen days."}, "[3]": {"experiment": "Hard shell capsule stability in aqueous SBE-CD solutions", "conditions": "SAE-CD, PVP and water fill; CAPSUGEL HGC"}, "[4]": {"experiment": "Shell stability on exposure to aqueous fill composition (half-shell integrity test, H.S.I.T.)", "conditions": "for content in fill composition for an HSIT rating of at least 3: PVP and water fill, lipophilic fill-grade CARDINAL SGC", "protocol": "as §1"}, "[5]": {"experiment": "Shell stability on exposure to aqueous fill composition (half-shell integrity test, H.S.I.T.)", "conditions": "for content in fill composition for an HSIT rating of at least 3: PVP and water fill, hydrophilic fill-grade BANNER SGC", "from_the_text": "Agitation continued until all the SAE-CD dissolved."}, "[6]": {"conditions": "40% wt. cyclodextrin derivative in water, HFC"}, "[7]": {"conditions": "50% wt. cyclodextrin derivative in water, HFC"}, "[8]": {"conditions": "55% wt. cyclodextrin derivative in water, HFC"}, "[9]": {"conditions": "60% wt. cyclodextrin derivative in water, HFC"}, "[10]": {"conditions": "40% wt. cyclodextrin derivative in water, LFC"}, "[11]": {"conditions": "50% wt. cyclodextrin derivative in water, LFC"}, "[12]": {"conditions": "55% wt. cyclodextrin derivative in water, LFC"}, "[13]": {"conditions": "60% wt. cyclodextrin derivative in water, LFC"}, "[14]": {"conditions": "40% wt. cyclodextrin derivative in water, HFB"}, "[15]": {"conditions": "50% wt. cyclodextrin derivative in water, HFB"}, "[16]": {"conditions": "55% wt. cyclodextrin derivative in water, HFB"}, "[17]": {"conditions": "60% wt. cyclodextrin derivative in water, HFB"}},
  "note": "Read-outs that look alike come from different tables or passages of the source.",
  "data": [
    {"compound": "O", "note": "[Water]", "values": [
      {"measurement": "content in fill composition for a stabilized capsule formulation", "setting": "[1]; SAE-CD, PEG and water fill, HFC", "value": "≦50%"},
      {"measurement": "content in fill composition for an HSIT rating of at least 3", "setting": "[2]", "value": "≦70%"},
      {"measurement": "content in fill composition for an HSIT rating of at least 3", "setting": "[3]", "value": "≦36%"},
      {"measurement": "content in fill composition for a stabilized capsule formulation", "setting": "[4]; SAE-CD, PEG and water fill, LFC", "value": "≦48%"},
      {"measurement": "content in fill composition for an HSIT rating of at least 3", "setting": "[4]; SAE-CD", "value": "≦49%"},
      {"measurement": "content in fill composition for a stabilized capsule formulation", "setting": "[5]; SAE-CD, PEG and water fill, HFB", "value": "≦48%"},
      {"measurement": "content in fill composition for an HSIT rating of at least 3", "setting": "[5]; SAE-CD", "value": "≦54%"}
    ]},
    {"compound": "sulfobutyl ether cyclodextrin [SAE-CD]", "values": [
      {"measurement": "content in fill composition for a stabilized capsule formulation", "setting": "[1]", "value": "≧18%"},
      {"measurement": "time the shell was stable", "setting": "[1]; 18% wt. SBE-CD, 42% wt. water and 40% wt. PEG, HFC", "value": "greater than 5 days"},
      {"measurement": "time the shell was stable", "setting": "[1]; 35% wt. SBE-CD, 35% wt. water and 30% wt. PEG, HFC", "value": "greater than 5 days"},
      {"measurement": "time the shell was stable", "setting": "[1]; 40% wt. SBE-CD, 40% wt. water and 20% wt. PEG, HFC", "value": "greater than 5 days"},
      {"measurement": "Increase in shell size", "setting": "[1]; [6]", "value": 3, "unit": "× original"},
      {"measurement": "Observations", "setting": "[1]; [6]", "value": "deformed"},
      {"measurement": "Time for failure", "setting": "[1]; [6]", "value": 4, "unit": "days"},
      {"measurement": "Increase in shell size", "setting": "[1]; [7]", "value": 2, "unit": "× original"},
      {"measurement": "Observations", "setting": "[1]; [7]", "value": "shape intact"},
      {"measurement": "Time for failure", "setting": "[1]; [7]", "value": 7, "unit": "days"},
      {"measurement": "Increase in shell size", "setting": "[1]; [8]", "value": "No change"},
      {"measurement": "Observations", "setting": "[1]; [8]", "value": "No deformities"},
      {"measurement": "Time for failure", "setting": "[1]; [8]", "value": "≧14 days"},
      {"measurement": "Increase in shell size", "setting": "[1]; [9]", "value": "no change"},
      {"measurement": "Observations", "setting": "[1]; [9]", "value": "no change"},
      {"measurement": "Time for failure", "setting": "[1]; [9]", "value": ">21", "unit": "days"},
      {"measurement": "failure time", "setting": "[2]; 30% SBE solution", "value": ">14", "unit": "days"},
      {"measurement": "failure time", "setting": "[2]; 40% SBE solution", "value": ">14", "unit": "days"},
      {"measurement": "failure time", "setting": "[2]; 50% SBE solution", "value": ">14", "unit": "days"},
      {"measurement": "failure time", "setting": "[2]; 60% SBE solution", "value": ">14", "unit": "days"},
      {"measurement": "content in fill composition for an HSIT rating of at least 3", "setting": "[2]", "value": "≧6%"},
      {"measurement": "time VCAP shells were stabilized", "setting": "[2]; concentrations of ≧30% wt. of the fill composition", "value": "≥ 14", "unit": "days"},
      {"measurement": "content in fill composition for an HSIT rating of at least 3", "setting": "[3]", "value": "≧24%"},
      {"measurement": "content in fill composition for a stabilized capsule formulation", "setting": "[4]", "value": "≧18%"},
      {"measurement": "Increase in shell size", "setting": "[4]; [10]", "value": ">3", "unit": "× original"},
      {"measurement": "Observations", "setting": "[4]; [10]", "value": "shape intact"},
      {"measurement": "Time for failure", "setting": "[4]; [10]", "value": 4, "unit": "days"},
      {"measurement": "Increase in shell size", "setting": "[4]; [11]", "value": 2, "unit": "× original"},
      {"measurement": "Observations", "setting": "[4]; [11]", "value": "deformed"},
      {"measurement": "Time for failure", "setting": "[4]; [11]", "value": 7, "unit": "days"},
      {"measurement": "Increase in shell size", "setting": "[4]; [12]", "value": "Slightly enlarged"},
      {"measurement": "Observations", "setting": "[4]; [12]", "value": "No deformities"},
      {"measurement": "Time for failure", "setting": "[4]; [12]", "value": "≧14 days"},
      {"measurement": "Increase in shell size", "setting": "[4]; [13]", "value": "no change"},
      {"measurement": "Observations", "setting": "[4]; [13]", "value": "no change"},
      {"measurement": "Time for failure", "setting": "[4]; [13]", "value": ">21", "unit": "days"},
      {"measurement": "content in fill composition for an HSIT rating of at least 3", "setting": "[4]; SAE-CD", "value": "≧6%"},
      {"measurement": "content in fill composition for a stabilized capsule formulation", "setting": "[5]", "value": "≧12%"},
      {"measurement": "Increase in shell size", "setting": "[5]; [14]", "value": 2, "unit": "× × original"},
      {"measurement": "Observations", "setting": "[5]; [14]", "value": "shape intact"},
      {"measurement": "Time for failure", "setting": "[5]; [14]", "value": 3, "unit": "days"},
      {"measurement": "Increase in shell size", "setting": "[5]; [15]", "value": 2.5, "unit": "× original"},
      {"measurement": "Observations", "setting": "[5]; [15]", "value": "Slightly"},
      {"measurement": "Time for failure", "setting": "[5]; [15]", "value": 16, "unit": "days"},
      {"measurement": "Increase in shell size", "setting": "[5]; [16]", "value": 2, "unit": "× original"},
      {"measurement": "Observations", "setting": "[5]; [16]", "value": "Deformed"},
      {"measurement": "Time for failure", "setting": "[5]; [16]", "value": 10, "unit": "days"},
      {"measurement": "Increase in shell size", "setting": "[5]; [17]", "value": "no change"},
      {"measurement": "Observations", "setting": "[5]; [17]", "value": "No change"},
      {"measurement": "Time for failure", "setting": "[5]; [17]", "value": "≧21 days"},
      {"measurement": "content in fill composition for an HSIT rating of at least 3", "setting": "[5]; SAE-CD", "value": "≧6%"}
    ]}
  ]
}
